This passage reports fold change (FC), Activity and inhibition results from ChEMBL document CHEMBL6182889, “Discovery of the first-in-class DOT1L PROTAC degrader” (Eur J Med Chem, 2025).

The source made the active and inactive calls. The rule behind the calls is not given here. Bounds are passed on as bounds.

A word on the inhibition: it is how much of the control response was suppressed. Higher therefore signals strong suppression.

Experiment [1] deals with T1, von Hippel-Lindau disease tumor suppressor/Histone-lysine N-methyltransferase, H3 lysine-79 specific (Homo sapiens, UniProt Q8TEK3+P40337). Briefly: PROTAC activity at VHL/DOTIL in mixed-lineage leukemia rearranged (MLL-r) human THP-1 cells assessed as induction of DOT1L degradation by measuring fold change in DOTIL protein level at 0.3 uM incubated for 24 hrs by western blot analysis relative to control. Type of experiment: cell-based. (In general: A western blot detects proteins with antibodies after separation by electrophoresis.)

Experiment [2] deals with T1, von Hippel-Lindau disease tumor suppressor/Histone-lysine N-methyltransferase, H3 lysine-79 specific. The experiment is described as follows: PROTAC activity at VHL/DOTIL in mixed-lineage leukemia rearranged (MLL-r) human THP-1 cells assessed as induction of DOT1L degradation by measuring fold change in DOTIL protein level at 3 uM incubated for 24 hrs by western blot analysis relative to control. The class given is cell-based.

In experiment [3] the test system is MOLM-13. Briefly: Antiproliferative activity against mixed-lineage leukemia rearranged (MLL-r) human MOLM-13 cells assessed as inhibition of cell growth incubated for 7 days by CCK-8 assay. Type of experiment: functional, cell-based. The note with it: time 7.0 day. In general terms: Formazan colour is commonly taken as a measure of viable cells.
Experiment [4] concerns the target Histone-lysine N-methyltransferase, H3 lysine-79 specific (Homo sapiens) (UniProt Q8TEK3). Briefly: Inhibition of human DOT1L using oligonucleosomes and SAM as substrate at 1.1 to 3.3 uM by radiometric Hotspot assay. The note with it: dose 1.1-3.3 µM.
Experiment [5] has as its system MV4-11. The experiment is described as follows: Antiproliferative activity against mixed-lineage leukemia rearranged (MLL-r) human MV4-11 cells assessed as inhibition of cell growth incubated for 7 days by CCK-8 assay. The class given is functional. The note with it: time 7.0 day.
The target of experiment [6] is Histone-lysine N-methyltransferase, H3 lysine-79 specific (Homo sapiens) (UniProt Q8TEK3). The experiment is described as follows: Inhibition of human DOT1L using oligonucleosomes and SAM as substrate at 4.6 nM by radiometric Hotspot assay.
Chain of Histone-lysine N-methyltransferase, H3 lysine-79 specific (Homo sapiens) (Q8TEK3 whole entry, looked up): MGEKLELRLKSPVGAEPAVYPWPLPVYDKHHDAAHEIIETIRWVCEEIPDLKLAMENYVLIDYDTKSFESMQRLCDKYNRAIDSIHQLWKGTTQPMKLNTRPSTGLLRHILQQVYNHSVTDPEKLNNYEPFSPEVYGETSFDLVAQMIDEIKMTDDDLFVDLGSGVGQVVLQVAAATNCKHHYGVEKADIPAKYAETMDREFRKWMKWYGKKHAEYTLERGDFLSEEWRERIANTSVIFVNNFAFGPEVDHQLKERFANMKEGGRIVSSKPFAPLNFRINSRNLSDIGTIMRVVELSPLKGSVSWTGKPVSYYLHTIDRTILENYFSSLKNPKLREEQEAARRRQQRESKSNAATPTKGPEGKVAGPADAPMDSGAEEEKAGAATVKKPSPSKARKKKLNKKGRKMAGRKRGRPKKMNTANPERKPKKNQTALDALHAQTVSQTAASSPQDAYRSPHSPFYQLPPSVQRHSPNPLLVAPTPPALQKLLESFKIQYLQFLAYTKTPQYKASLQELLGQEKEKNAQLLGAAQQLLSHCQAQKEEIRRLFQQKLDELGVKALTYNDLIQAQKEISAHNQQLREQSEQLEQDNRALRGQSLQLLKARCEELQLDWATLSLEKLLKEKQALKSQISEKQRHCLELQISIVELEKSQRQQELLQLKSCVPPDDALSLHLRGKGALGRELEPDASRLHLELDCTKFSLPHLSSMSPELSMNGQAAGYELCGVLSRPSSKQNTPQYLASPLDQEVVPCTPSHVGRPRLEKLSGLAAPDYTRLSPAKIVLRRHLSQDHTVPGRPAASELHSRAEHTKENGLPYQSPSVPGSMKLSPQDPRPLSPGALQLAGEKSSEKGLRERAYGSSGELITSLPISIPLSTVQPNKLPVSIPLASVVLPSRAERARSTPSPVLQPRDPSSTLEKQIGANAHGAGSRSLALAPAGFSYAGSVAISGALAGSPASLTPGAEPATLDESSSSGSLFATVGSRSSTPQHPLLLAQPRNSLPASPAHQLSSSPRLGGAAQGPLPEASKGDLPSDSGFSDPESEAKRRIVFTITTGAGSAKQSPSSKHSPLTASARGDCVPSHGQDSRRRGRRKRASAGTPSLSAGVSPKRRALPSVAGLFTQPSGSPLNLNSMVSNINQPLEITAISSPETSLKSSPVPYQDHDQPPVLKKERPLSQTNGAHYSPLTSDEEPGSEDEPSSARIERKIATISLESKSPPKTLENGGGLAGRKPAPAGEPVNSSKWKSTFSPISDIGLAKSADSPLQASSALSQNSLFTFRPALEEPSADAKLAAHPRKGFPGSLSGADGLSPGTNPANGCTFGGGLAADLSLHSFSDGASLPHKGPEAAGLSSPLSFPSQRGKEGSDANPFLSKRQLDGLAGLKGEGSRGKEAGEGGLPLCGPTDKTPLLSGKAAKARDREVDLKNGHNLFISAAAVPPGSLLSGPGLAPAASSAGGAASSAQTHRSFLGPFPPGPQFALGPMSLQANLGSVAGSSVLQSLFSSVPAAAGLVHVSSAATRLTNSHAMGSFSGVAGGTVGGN

T1 sequence (P40337 whole entry, looked up): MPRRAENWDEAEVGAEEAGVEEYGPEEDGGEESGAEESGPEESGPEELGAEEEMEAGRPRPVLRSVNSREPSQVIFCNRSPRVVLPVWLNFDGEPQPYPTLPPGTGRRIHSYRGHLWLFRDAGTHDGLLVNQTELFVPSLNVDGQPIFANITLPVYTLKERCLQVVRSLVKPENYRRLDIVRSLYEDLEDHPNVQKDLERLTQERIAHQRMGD
T1 sequence (Q8TEK3 whole entry, looked up): as the sequence (Q8TEK3 whole entry, looked up) above

On to `Cc1ncsc1-c1ccc([C@H](CC(=O)NCCCNC(=O)COc2nc(N)nc(Nc3cc(S(N)(=O)=O)ccc3N[C@@H](c3cccc4c3OC(F)(F)O4)c3ncccc3Cl)n2)NC(=O)[C@@H]2C[C@@H](O)CN2C(=O)[C@@H](NC(=O)C2(F)CC2)C(C)(C)C)cc1`, for which the fold change (FC) in experiment [1] was 0.72; in experiment [2], 0.28.

On to `Cc1ncsc1-c1ccc(CNC(=O)[C@@H]2C[C@@H](O)CN2C(=O)[C@@H](NC(=O)CCCCCNC(=O)COc2nc(N)nc(Nc3cc(S(N)(=O)=O)ccc3N[C@@H](c3cccc4c3OC(F)(F)O4)c3ncccc3Cl)n2)C(C)(C)C)cc1`, for which the fold change (FC) was 1.52 in experiment [1] and 1.11 in experiment [2].

`COc1nc(N)nc(Nc2cc(S(N)(=O)=O)ccc2N[C@@H](c2cccc3c2OC(F)(F)O3)c2ncccc2Cl)n1`: the values for the fold change (FC) in experiment [1] and in experiment [2] were 1.29 and 1.57, respectively. The Activity result in experiment [3] is given as “Active; Reduced Potency In Molm-13 Cells Relative To Mv4-11 Cells Observed”.

As to `Cc1ncsc1-c1ccc([C@H](CC(=O)NCCCCCNC(=O)COc2nc(N)nc(Nc3cc(S(N)(=O)=O)ccc3N[C@@H](c3cccc4c3OC(F)(F)O4)c3ncccc3Cl)n2)NC(=O)[C@@H]2C[C@@H](O)CN2C(=O)[C@@H](NC(=O)C2(F)CC2)C(C)(C)C)cc1`, the figures for the fold change (FC) in experiment [1] and in experiment [2] were 0.9 and 0.36, respectively.

As to `Cc1ncsc1-c1ccc([C@H](CC(=O)NCCCCCCCNC(=O)COc2nc(N)nc(Nc3cc(S(N)(=O)=O)ccc3N[C@@H](c3cccc4c3OC(F)(F)O4)c3ncccc3Cl)n2)NC(=O)[C@@H]2C[C@@H](O)CN2C(=O)[C@@H](NC(=O)C2(F)CC2)C(C)(C)C)cc1`, the results for the fold change (FC) in experiment [1] and in experiment [2] were 0.36 and 0.33, respectively.

On to `Cc1ncsc1-c1ccc(CNC(=O)[C@@H]2C[C@@H](O)CN2C(=O)[C@@H](NC(=O)CCCCCCCNC(=O)COc2nc(N)nc(Nc3cc(S(N)(=O)=O)ccc3N[C@@H](c3cccc4c3OC(F)(F)O4)c3ncccc3Cl)n2)C(C)(C)C)cc1`, for which the figures for the fold change (FC) in experiment [1] and in experiment [2] were 1.01 and 0.83, respectively.

For the compound `Cc1ncsc1-c1ccc([C@H](CC(=O)NCCCCCCCCNC(=O)COc2nc(N)nc(Nc3cc(S(N)(=O)=O)ccc3N[C@@H](c3cccc4c3OC(F)(F)O4)c3ncccc3Cl)n2)NC(=O)[C@@H]2C[C@@H](O)CN2C(=O)[C@@H](NC(=O)C2(F)CC2)C(C)(C)C)cc1`, the fold change (FC) was found to be 0.52 in experiment [1] and 0.56 in experiment [2].

With `Cc1ncsc1-c1ccc(CNC(=O)[C@@H]2C[C@@H](O)CN2C(=O)[C@@H](NC(=O)CCCCCCNC(=O)COc2nc(N)nc(Nc3cc(S(N)(=O)=O)ccc3N[C@@H](c3cccc4c3OC(F)(F)O4)c3ncccc3Cl)n2)C(C)(C)C)cc1`, the fold change (FC) in experiment [1] turned out to be 0.99; in experiment [2], 1.17.

As to `Cc1ncsc1-c1ccc(CNC(=O)[C@@H]2C[C@@H](O)CN2C(=O)[C@@H](NC(=O)CCNC(=O)COc2nc(N)nc(Nc3cc(S(N)(=O)=O)ccc3N[C@@H](c3cccc4c3OC(F)(F)O4)c3ncccc3Cl)n2)C(C)(C)C)cc1`, the fold change (FC) in experiment [1] stood at 0.82; in experiment [2], 0.95.

For the compound `CC(=O)Nc1nc(Nc2cc(S(=O)(=O)NC(C)=O)ccc2N(C(C)=O)[C@@H](c2cccc3c2OC(F)(F)O3)c2ncccc2Cl)nc(OCC(=O)NCCCCCCNC(=O)C[C@H](NC(=O)C2CC(O)CN2C(=O)[C@@H](NC(=O)C2(F)CC2)C(C)(C)C)c2ccc(-c3scnc3C)cc2)n1` (single isomer, unassigned), the fold change (FC) in experiment [1] was 1.1; in experiment [2], 1.11. For the same compound, the inhibition in experiment [4] is above 50%. Moreover, the result in experiment [3] and in experiment [5] was inactive.

`Cc1ncsc1-c1ccc([C@H](CC(=O)NCCCCNC(=O)COc2nc(N)nc(Nc3cc(S(N)(=O)=O)ccc3N[C@@H](c3cccc4c3OC(F)(F)O4)c3ncccc3Cl)n2)NC(=O)[C@@H]2C[C@@H](O)CN2C(=O)[C@@H](NC(=O)C2(F)CC2)C(C)(C)C)cc1`: the results for the fold change (FC) in experiment [1] and in experiment [2] were 0.58 and 0.6, respectively.

On to `Cc1ncsc1-c1ccc(CNC(=O)[C@@H]2C[C@@H](O)CN2C(=O)[C@@H](NC(=O)CCCNC(=O)COc2nc(N)nc(Nc3cc(S(N)(=O)=O)ccc3N[C@@H](c3cccc4c3OC(F)(F)O4)c3ncccc3Cl)n2)C(C)(C)C)cc1`, for which the fold change (FC) in experiment [1] was 0.99; in experiment [2], 1.2.

With `CC(C)N(C[C@H]1O[C@@H](n2cnc3c(N)ncnc32)[C@H](O)[C@@H]1O)[C@H]1C[C@@H](CCc2nc3cc(C(C)(C)C)ccc3[nH]2)C1`, the fold change (FC) in experiment [1] stood at 1.07; in experiment [2] it was 1.03. Further, in experiment [3], the Activity entry is given as “Active; Reduced Potency In Molm-13 Cells Relative To Mv4-11 Cells Observed”.

As to `Cc1ncsc1-c1ccc(CNC(=O)[C@@H]2C[C@@H](O)CN2C(=O)[C@@H](NC(=O)CCCCNC(=O)COc2nc(N)nc(Nc3cc(S(N)(=O)=O)ccc3N[C@@H](c3cccc4c3OC(F)(F)O4)c3ncccc3Cl)n2)C(C)(C)C)cc1`, the fold change (FC) in experiment [1] is 0.99; in experiment [2], 1.17.

Consider `Cc1ncsc1-c1ccc([C@H](CC(=O)NCCCCCCNC(=O)COc2nc(N)nc(Nc3cc(S(N)(=O)=O)ccc3N[C@@H](c3cccc4c3OC(F)(F)O4)c3ncccc3Cl)n2)NC(=O)[C@@H]2C[C@H](O)CN2C(=O)[C@@H](NC(=O)C2(F)CC2)C(C)(C)C)cc1`, for which the fold change (FC) in experiment [1] worked out at 0.99; in experiment [2], 1.05. In experiment [6], the inhibition was above 95%. Moreover, in experiment [3], the result was inactive. For the same compound, the result in experiment [5] was Active.

With `Cc1ncsc1-c1ccc([C@H](CC(=O)NCCNC(=O)COc2nc(N)nc(Nc3cc(S(N)(=O)=O)ccc3N[C@@H](c3cccc4c3OC(F)(F)O4)c3ncccc3Cl)n2)NC(=O)[C@@H]2C[C@@H](O)CN2C(=O)[C@@H](NC(=O)C2(F)CC2)C(C)(C)C)cc1`, the values for the fold change (FC) in experiment [1] and in experiment [2] were 0.83 and 0.55, respectively.
